According to BindingDB's records for doi:10.1016/j.bmc.2013.03.004 (University of Oxford, 2013):
pIC50: −log10 of the molar value.

Target: T1, Lysosomal acid glucosylceramidase (Bos taurus, UniProt Q2KHZ8)
T1 sequence (Q2KHZ8 whole entry): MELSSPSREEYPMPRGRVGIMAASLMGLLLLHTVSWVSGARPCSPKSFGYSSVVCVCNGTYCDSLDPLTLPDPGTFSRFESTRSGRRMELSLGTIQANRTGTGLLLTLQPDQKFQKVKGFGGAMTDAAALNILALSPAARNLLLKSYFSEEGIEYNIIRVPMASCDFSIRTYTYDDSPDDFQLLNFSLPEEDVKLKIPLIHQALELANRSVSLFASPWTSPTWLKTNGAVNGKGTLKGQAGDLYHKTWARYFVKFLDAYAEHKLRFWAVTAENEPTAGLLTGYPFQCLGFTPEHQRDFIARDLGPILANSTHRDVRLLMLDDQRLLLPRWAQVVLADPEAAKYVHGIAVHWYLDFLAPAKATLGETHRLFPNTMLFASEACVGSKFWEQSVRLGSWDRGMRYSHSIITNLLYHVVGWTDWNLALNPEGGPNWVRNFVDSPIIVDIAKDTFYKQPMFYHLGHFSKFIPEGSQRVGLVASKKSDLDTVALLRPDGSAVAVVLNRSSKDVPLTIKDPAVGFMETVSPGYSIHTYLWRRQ
Experiment: Inhibition of bovine liver beta-glucosidase

Q: How did the pIC50 turn out when `OC[C@H](O)[C@@H]1NC[C@@H]1O` was run?
A: 3.00
